Measurements: patent US5366982A (priority 1990, dated 1994)

Target: leukotriene B4 receptors (Cavia porcellus, UniProt H0VYV8)
Test: biochemical
Type: binding, guinea-pig
Conditions: Table XIX; guinea-pig spleen membranes, tritium-labelled LTB4; read-out: IC50 Binding (Cheng)

Chain of leukotriene B4 receptors (H0VYV8 1-348): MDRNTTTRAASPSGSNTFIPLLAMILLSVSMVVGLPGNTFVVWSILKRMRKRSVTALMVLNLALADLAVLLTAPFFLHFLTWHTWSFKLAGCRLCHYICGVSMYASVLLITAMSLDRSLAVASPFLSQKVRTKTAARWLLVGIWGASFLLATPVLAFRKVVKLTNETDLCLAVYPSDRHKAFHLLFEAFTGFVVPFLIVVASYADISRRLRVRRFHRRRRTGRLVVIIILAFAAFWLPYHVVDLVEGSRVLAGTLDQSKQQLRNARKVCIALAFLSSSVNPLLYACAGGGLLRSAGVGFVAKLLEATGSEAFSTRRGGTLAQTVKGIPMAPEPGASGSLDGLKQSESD

| SMILES | IC50 |
| --- | --- |
| CN(C)c1ccc(-c2cc(OCCCCC(C)(C)C(=O)O)nc3ccccc23)cc1 [2,2-dimethyl-6-{[4-(4-dimethylaminophenyl)-2-quinolyl]oxy}hexanoic acid] | 30 nM |
| CC(C)(CCCCOc1cc(-c2ccc(Cl)cc2)c2ccccc2n1)C(=O)O [2,2-dimethyl-6-{[4-(4-chlorophenyl)-2-quinolyl]oxy}hexanoic acid] | 15 nM |
| CC(C)(CCCCOc1cc(-c2ccc(Cl)c(Cl)c2)c2ccccc2n1)C(=O)O [2,2-dimethyl-6-{[4-(3,4-dichlorophenyl)-2-quinolyl]oxy}hexanoic acid] | 3500 nM |
| O=C(CCCOc1cc(-c2ccccc2)cc(-c2ccccc2)n1)Nc1ccccc1 [4-[(4,6-diphenyl-2-pyridyl)oxy]butanilide] | > 1000 nM |
| CC(C)(CCCCOc1cc(-c2ccc([N+](=O)[O-])cc2)c2ccccc2n1)C(=O)O [2,2-dimethyl-6-{[4-(4-nitrophenyl)-2-quinolyl]oxy}hexanoic acid] | 150 nM |
| O=C(O)CCCOc1cc(-c2ccccc2)cc(-c2ccccc2)n1 [4-[(4,6-diphenyl-2-pyridyl)oxy]butanoic acid] | 300 nM |
| c1ccc(-c2cc(-c3ccc4c(c3)OCO4)cc(OCCCCCc3nnn[nH]3)n2)cc1 [5-{5-{[6-phenyl-4-(3,4-methylenedioxyphenyl)-2-pyridyl]oxy}pentyl}-1H-tetrazole] | 2 nM |
| CCC(CCCCOc1cc(-c2ccc(Cl)cc2)c2ccccc2n1)C(=O)O (centres unmarked) [2-ethyl-6-{[4-(4-chlorophenyl)-2-quinolyl]oxy}hexanoic acid] | 200 nM |
| CC(C)(CCCCOc1cc(-c2ccccc2)c2ccccc2n1)C(=O)O [2,2-dimethyl-6-[(4-phenyl-2-quinolyl)oxy]hexanoic acid] | 150 nM |
| CC(CCCCOc1cc(-c2ccc(Cl)cc2)c2ccccc2n1)C(=O)O (centres unmarked) [2-methyl-6-{[4-(4-chlorophenyl)-2-quinolyl]oxy}hexanoic acid] | 30 nM |
| CC(C)(CCCCCCOc1cc(-c2ccccc2)cc(-c2ccccc2)n1)C(=O)O [2,2-dimethyl-8-[(4,6-diphenyl-2-pyridyl)oxy]octanoic acid] | 22 nM |
| COc1ccc(-c2cc(OCCCCC(C)C(=O)O)nc3ccccc23)cc1 (centres unmarked) [2-methyl-6-{[4-(4-methoxyphenyl)-2-quinolyl]oxy}hexanoic acid] | 16 nM |
| Clc1ccc(-c2cc(OCCCCCc3nnn[nH]3)nc3ccccc23)cc1 [5-{5-{[4-(4-chlorophenyl)-2-quinolyl]oxy}pentyl}-[1H]-tetrazole] | 25 nM |
| CC(C)(CCCCCCSc1ncc(-c2ccccc2)c(-c2ccccc2)n1)C(=O)O [2,2-dimethyl-8-(4,5-diphenyl-2-pyrimidylthio)octanoic acid] | 2500 nM |
| O=C(O)CCCCCCCOc1ccc(-c2ccccc2)c(-c2ccccc2)n1 | 10000 nM |
| O=C(O)CCCCCOc1nc(-c2ccccc2)cc(-c2ccccc2)n1 [6-[(4,6-diphenyl-2-pyrimidyl)oxy]hexanoic acid] | 150 nM |
| O=C(O)CCCCCCCSc1ncc(-c2ccccc2)c(-c2ccccc2)n1 | 3000 nM |
| CC(C)(CCCCOc1cc(-c2cccc(Cl)c2)c2ccccc2n1)C(=O)O [2,2-dimethyl-6-{[4-(3-chlorophenyl)-2-quinolyl]oxy}hexanoic acid] | 1100 nM |
| O=C(O)CCCCCSc1ncc(-c2ccccc2)c(-c2ccccc2)n1 [6-(4,5-diphenyl-2-pyrimidylthio)hexanoic acid] | 8000 nM |
| CC(C)(CCCCOc1cc(-c2ccccc2)c2ccccc2n1)c1nnn[nH]1 [5-{1,1-dimethyl-5-[(4-phenyl-2-quinolyl)oxy]pentyl}-[1H]-tetrazole] | 400 nM |
| CC(C)(CCCCOc1cc(-c2ccc(C(F)(F)F)cc2)c2ccccc2n1)C(=O)O [2,2-dimethyl-6-{[4-(4-trifluoromethylphenyl)-2-quinolyl]oxy}hexanoic acid] | 300 nM |
| CC(CCCCOc1cc(-c2ccccc2)c2ccccc2n1)C(=O)O (centres unmarked) [2-methyl-6-[(4-phenyl-2-quinolyl)oxy]hexanoic acid] | 550 nM |
| CC(C)(CCCCOc1cc(-c2ccc(Cl)cc2)c2ccccc2n1)c1nnn[nH]1 [5-{1,1-dimethyl-5-{[4-(4-chlorophenyl)-2-quinolyl]oxy}pentyl}-[1H]-tetrazole] | 30 nM |
| O=C(O)COCCCOc1cc(-c2ccccc2)cc(-c2ccccc2)n1 | 100 nM |
| O=C(O)CCCCCCCSc1nc(-c2ccccc2)c2ccccc2n1 | 9000 nM |
| CC(C)(CCCCOc1cc(-c2cccs2)c2ccccc2n1)C(=O)O [2,2-dimethyl-6-{[4-(2-thienyl)-2-quinolyl]oxy}hexanoic acid] | 200 nM |
| O=C(O)CCCCCOc1cc(-c2ccccc2)ccn1 [6-[(4-phenyl-2-pyridyl)oxy]hexanoic acid] | 900 nM |
| COc1cccc(-c2cc(OCCCCC(C)(C)C(=O)O)nc3ccccc23)c1 [2,2-dimethyl-6-{[4-(3-methoxyphenyl)-2-quinolyl]oxy}hexanoic acid] | 300 nM |
| c1ccc(-c2cc(OCCCCCc3nnn[nH]3)nc3ccccc23)cc1 [5-{5-[(4-phenyl-2-quinolyl)oxy]pentyl}-[1H]-tetrazole] | 500 nM |

Continued, values first:

| IC50 | SMILES |
| --- | --- |
| 15 nM | Cc1cccc(-c2cc(OCCCCCC(=O)O)nc(-c3ccccc3)c2)c1 [6-{[4-(3-methylphenyl)-6-phenyl-2-pyridyl]oxy}hexanoic acid] |
| 5000 nM | Cc1ccc2nc(OCCCCC(C)(C)C(=O)O)cc(-c3ccccc3)c2c1 [6-[(6-methyl-4-phenyl-2-quinolyl)oxy]-2,2-dimethylhexanoic acid] |
| 30 nM | O=C(O)CCCCCOc1cc(-c2ccc(Cl)cc2)c2ccccc2n1 [6-{[4-(4-chlorophenyl)-2-quinolyl]oxy}hexanoic acid] |
| 2 nM | CC(CCCCOc1cc(-c2ccc3c(c2)OCO3)cc(-c2ccccc2Cl)n1)C(=O)O (centres unmarked) [6-{[6-(2-chlorophenyl)-4-(3,4-methylenedioxyphenyl)-2-pyridyl]oxy}-2-methylhexanoic acid] |
| 500 nM | O=C(O)CCCCCOc1cc(-c2cc(Cl)cc(Cl)c2)cc(-c2ccccc2)n1 [6-{[4-(3,5-dichlorophenyl)-6-phenyl-2-pyridyl]oxy}hexanoic acid] |
| 200 nM | O=C(O)CCCCCOc1cc(-c2ccccc2Cl)cc(-c2ccccc2)n1 [6-{[4-(2-chlorophenyl)-6-phenyl-2-pyridyl]oxy}hexanoic acid] |
| 3000 nM | COc1ccc(-c2ccc(OCCCCCCCC(=O)O)nc2-c2ccc(OC)cc2)cc1 [8-{[5,6-bis-(4-methoxyphenyl)-2-pyridyl]oxy}octanoic acid] |
| 1700 nM | COc1ccc(-c2cc(-c3ccc(Cl)cc3)cc(OCCCCCC(=O)O)n2)cc1 [6-{[4-(4-chlorophenyl)-6-(4-methoxyphenyl)-2-pyridyl]oxy}hexanoic acid] |
| 200 nM | Cc1cc(-c2ccccc2)cc(OCCCCCC(=O)O)n1 [6-[(6-methyl-4-phenyl-2-pyridyl)oxy]hexanoic acid] |
| 8500 nM | O=C(O)CCCCCCCOc1ncc(-c2ccccc2)c(-c2ccccc2)n1 [8-(4,5-diphenyl-2-pyrimidyloxy)octanoic acid] |
| 2000 nM | CC(C)(CCCCOc1cccc(-c2ccccc2)n1)C(=O)O [6-[(6-phenyl-2-pyridyl)oxy]-2,2-dimethylhexanoic acid] |
| 8 nM | CNc1ccc(-c2cc(OCCCCC(C)(C)C(=O)O)nc(-c3ccccc3)c2)cc1 [6-{[4-(4-methylaminophenyl)-6-phenyl-2-pyridyl]oxy}-2,2-dimethylhexanoic acid] |
| 150 nM | O=C(O)CCCCCOc1cc(-c2ccc(NC(=O)C(F)(F)F)cc2)cc(-c2ccccc2)n1 [6-{[4-(4-trifluoroacetamidophenyl)-6-phenyl-2-pyridyl]oxy}hexanoic acid] |
| 5000 nM | CCOC(=O)CCCCCOc1cc(-c2ccccc2)cc(-c2ccc(Cl)cc2)n1 [ethyl 6-{[6-(4-chlorophenyl)-4-phenyl-2-pyridyl]oxy}hexanoate] |
| 1000 nM | O=C(O)CCCCCOc1cc(-c2ccccc2)cc(-c2ccc(Cl)cc2)n1 [6-{[6-(4-chlorophenyl)-4-phenyl-2-pyridyl]oxy}hexanoic acid] |
| 10000 nM | CC(C)(CCCCOc1ccc(-c2ccccc2)c(-c2ccccc2)n1)C(=O)O [6-[(5,6-diphenyl-2-pyridyl)oxy]-2,2-dimethylhexanoic acid] |
| 50 nM | O=C(O)CCCCCOc1cc(-c2ccc([N+](=O)[O-])cc2)cc(-c2ccccc2)n1 [6-{[4-(4-nitrophenyl)-6-phenyl-2-pyridyl]oxy}hexanoic acid] |
| 20 nM | CC(C)(CCCCOc1cc(-c2ccc(Cl)cc2)ccn1)C(=O)O [6-{[4-(4-chlorophenyl)-2-pyridyl]oxy}-2,2-dimethylhexanoic acid] |

Same assay, conditions: read-out: Binding (Cheng) % Inhibition at 10 μM

| SMILES | inhibition at 10 µM |
| --- | --- |
| O=C(CCCCCOc1cc(-c2ccccc2)c2ccccc2n1)N1CCCC1 [1-[6-(4-phenyl-2-quinolyloxy)hexanoyl]pyrrolidine] | 12% |
| CC(C)(CCCCSc1cc(-c2ccccc2)c2ccccc2n1)C(=O)O [2,2-dimethyl-6-[(4-phenyl-2-quinolyl)thio]hexanoic acid] | 33% |
| O=C(O)CCCCCOc1ncc(-c2ccccc2)c(-c2ccccc2)n1 [6-(4,5-diphenyl-2-pyrimidyloxy)hexanoic acid] | 35% |

Next, values leading:

| inhibition at 10 µM | SMILES |
| --- | --- |
| 21% | COc1ccc(-c2cc(OCCCCCC(=O)O)nc(-c3ccccc3)c2)cc1OC [6-{[6-phenyl-4-(3,4-dimethoxyphenyl)-2-pyridyl]oxy]hexanoic acid] |
| 37% | COc1ccc(-c2ccc(OCCCCCC(=O)O)nc2-c2ccc(OC)cc2)cc1 [6-{[5,6-bis-(4-methoxyphenyl)-2-pyridyl]oxy}hexanoic acid] |
| 27% | O=C(O)CCCCC=Cc1cc(-c2ccccc2)c2ccccc2n1 [7-(4-phenyl-2-quinolyl)-6-hepten-1-oic acid] |
| 32% | O=C(O)CCCCCOc1cc(-c2ccc(C(=O)O)cc2)cc(-c2ccccc2)n1 [6-{[6-phenyl-4-(4-carboxyphenyl)-2-pyridyl]oxy}hexanoic acid] |
| 50% | COc1cc(OC)cc(-c2cc(OCCCCCC(=O)O)nc(-c3ccccc3)c2)c1 [6-{[6-phenyl-4-(3,5-dimethoxyphenyl)-2-pyridyl]oxy}hexanoic acid] |
| 36% | COc1ccccc1-c1cc(OCCCCC(C)(C)C(=O)O)nc2ccccc12 [6-{[4-(2-methoxyphenyl)-2-quinolyl]oxy}-2,2-dimethylhexanoic acid] |
